Experimental data from patent publication US7528107B2, “Methods of treating inflammation in mammalian tissues comprising administering human alpha-defensins” (Auburn University, priority 2005, dated 2009).
“Also recorded” adds a separate entry of the source.

Key:
Format in all cases: cell-based
[1] = tested on: IL-1β release from human monocytes; assay: ATP mediated proIL-1β / mature IL-1β release from LPS-activated human monocytes (FIG. 2, FIG. 3)
[2] = tested on: IL-1β release from human monocytes; assay: proIL-1β / mature IL-1β release from LPS-activated human monocytes (FIG. 2); details: for mature IL-1β in LPS activated cells / proIL-1β in LPS activated cells: overall statement, no concentration given; for LPS-mediated IL-1β release from human monocytes: summary statement
Procedure: (§1) Lipopolysaccharide (LPS) activated, ^35S-methionine-labeled human monocytes treated with human α-defensins HNP-1 or HD-5 in the presence and absence of ATP were examined. Media and cell-associated fractions were harvested separately and IL-1β was recovered from each by immunoprecipitation. The resulting immuno-precipitates were analyzed by SDS-PAGE and autoradiography. Referring now to FIG. 2, in the absence of ATP, LPS activated monocytes released about 10% of ^35S-methionine-labeled proIL-1β (31 kDa) into the media, but no mature (17 kDa) IL-1β was detected. As expected, addition of ATP to the LPS-activated monocyte culture led to the release of 90% of newly synthesized proIL-1β from the cell and more than 90% of the proIL-1β was processed to mature IL-1β and detected in the media.
(§2) Peripheral blood monocytes where isolated from healthy volunteers and patients with inflammatory bowel disease and suspended in monocyte maintenance medium (RPMI 1640 medium, 5% FBS 25 mM HEPES and 1% Pen/Strep). Blood samples from healthy volunteers were collected at the Auburn University Medical Clinic under an approved protocol. Blood samples from inflammatory bowel disease patients were provided by Dr. W. Park McGehee of Internal Medicine Associates of Opelika, Ala., U.S.A.
(§3) Monocytes were first primed with lipopolysaccharides (LPS). Monocytes were allowed to adhere for two hours, after which medium supernatants were discarded. Attached cells were rinsed twice with maintenance medium and incubated in 1 ml of maintenance medium overnight at 37° C. in a 5% CO2 environment. The following morning LPS was added to some walls to achieve a final concentration of 10 ng/ml and the cultures were activated for two hours at 37° C. The media was then removed and 1 ml of fresh medium (RPMI 1640 containing 1% FVS 25 mM HEPES and 5 mM NaHCO3) was added to each well. These LPS-activated monocytes where then treated with ATP and subsequently, monocytes were selectively treated with α-defensins for interleukin-1β post transitional processing and release studies.
(§4) Human α-defensin HNP-1 was obtained from Peptide International of Louisville, Ky., U.S.A. Recombinant human α-defensin HD-5 was provided by Dr. Edith Porter of California State University, Los Angeles, U.S.A. The quality of the synthetic peptides were verified by their anti-bacterial activity. Synthetic human α-defensin HNP-1 was further purified by HPLC and compared to the natural HNP-1 by acid-urea PAGE. LPS-activated human monocytes were treated with 0, 1, 10 and 100 micrograms at 37° C. for three hours. It was also treated with 2 mm ATP for IL-1β maturation. Supernatants were then collected after a 5 minute centrifugation in microphage tubes. The concentration of mature IL-1β and the supernatants was quantified by ELISA(R&D Systems). Because the ELISA is reported by the manufacturer to recognize both pro and mature IL-1β species, presence of proIL-1β and mature IL-1β in the supernatant and cell lysates was also determined by western blot analysis. Briefly, proteins were precipitated from the supernatants by addition of trichloroacetic acid (TCA: 7.5% final concentration) and cholic acid (0.1% final concentration) to each sample. The percipate proteins were washed twice with 100% acetone to extract residual TCA and dissolved in 0.1 ml of SDS-PAGE sampled buffer. The cells where then washed once with PBS and lysed into 0.2 ml of lysis washed once with PBS and lysed into 0.2 ml of lysis buffer (25 mM HEPES 300 mM NaCl 1.5 mM MgCl2, 0.2 mM EDTA, 1% triton X-100, 2 mg/ml leupeptin and 10 mg/ml PMF). Cell lysates and TSA precipitated proteins from the supernatants where then subjected to 12% SDS-PAGE gels and then transferred to PVDV membranes for western blot analysis. IL-1β was probed with goat anti-IL-1β antibody and detected with the rabbit anti-goat IgG-horesradish peroxidase conjugate.

[3] = tested on: IL-1β release from human monocytes; assay: ATP mediated proIL-1β / mature IL-1β release from LPS-activated human monocytes (FIG. 2, FIG. 3); details: for processing of proIL-1β after it is released extracellularly: LPS-activated human monocytes treated with ATP, then α-defensins; for ATP-mediated IL-1β release from human monocytes: summary statement
Procedure: as §1, §2, §3
as §4, with “conjugate. […]” for “conjugate.”

[4] = tested on: IL-1β release from human monocytes
[5] = FIG. 2 column 3, 20 ng/ml LPS + ATP + YVAD-CMK 100 μM
[6] = FIG. 2 column 7, 10 ng/ml LPS 2 hours
[7] = FIG. 2 columns 8 and 9, increase of 20-50 mg HNP-1
[8] = overall statement, no concentration given
[9] = physiological concentrations of 5 ug to 100 ug/ml
[10] = FIG. 3 columns 2-4, 20-100 μg/ml of HNP-1, 1 mM ATP, 3 hours
[11] = addition of ATP to the LPS-activated monocyte culture, 35S-methionine label
[12] = FIG. 3 columns 5 and 6, 20 and 100 μg/ml of HD-1, 1 mM ATP, 3 hours

| Compound | mature IL-1β in LPS activated cells [2] | proIL-1β in LPS activated cells [2] | LPS-mediated IL-1β release from human monocytes [2] | processing of proIL-1β after it is released extracellularly [3] | ATP mediated proIL-1β release [3, 8] | ATP mediated proIL-1β release [3, 9] | ATP-mediated IL-1β release from human monocytes [3] | Staphylococcus aureus alpha-toxin-mediated IL-1β release from human monocytes [4] | other results |
| --- | --- | --- | --- | --- | --- | --- | --- | --- | --- |
| CC(=O)N[C@@H](Cc1ccc(O)cc1)C(=O)N[C@H](C(=O)N[C@@H](C)C(=O)N[C@@H](CC(=O)O)C(=O)CCl)C(C)C [YVAD-CMK, reference compound] | – | – | – | – | – | – | – | – | mature IL-1β produced (western blot) [1, 5]: no mature IL-1β proteins; proIL-1β produced (western blot) [1, 5]: substantial amount of proIL-1β |
| human neutrophil defensin 1 [HNP-1] | substantially completely block | inhibit; also recorded: substantially completely block | blocks | does not appear to affect | blocked in a dose dependant manner; also recorded: block ATP mediated proIL-1β release in a dose dependant manner | blocked ATP mediated proIL-1β release in a dose dependant manner | blocks | blocks | proIL-1β production ([2]; 20 ug/ml of HNP-1, FIG. 2): sufficient to block; mature IL-1β (western blot) [2, 6]: no mature IL-1β; proIL-1β (western blot) [2, 6]: some proIL-1β; mature IL-1β (western blot) [2, 7]: no mature IL-1β proteins were produced; proIL-1β (western blot) [2, 7]: no proIL-1β; mature IL-1β from ATP activated cells [1, 10]: inhibited in a dose dependant manner; proIL-1β release from ATP activated cells [1, 10]: no proIL-1β is released |
| Nc1ncnc2c1ncn2[C@@H]1O[C@H](COP(=O)(O)OP(=O)(O)OP(=O)(O)O)[C@@H](O)[C@H]1O [ATP, Adenosine triphosphate, reference compound] | – | – | – | – | – | – | – | – | proIL-1β processed to mature IL-1β and detected in the media [3, 11]: more than 90%; release of newly synthesized proIL-1β from the cell [3, 11]: 90% |
| human α-defensin 5 (ATCYCRTGRCATRESLSGVCEISGRLYRLCCR; ALPHA DEFENSIN HD-5; listed as Homo sapiens) [Recombinant human α-defensin produced by Paneth cells] | substantially completely block | inhibit; also recorded: substantially completely block | blocks | does not appear to affect | blocked in a dose dependant manner; also recorded: block ATP mediated proIL-1β release in a dose dependant manner | blocked ATP mediated proIL-1β release in a dose dependant manner | blocks | blocks | release of proIL-1β from the LPS-activated monocyte culture ([2]; 10 ug/ml of HD-5, FIG. 2): completely blocked; proIL-1β expressed (western blot) ([2]; FIG. 2 columns 4, 5, 6, increasing amount of HD-5, 4 million cell equivalents activated with LPS): no proIL-1β; mature IL-1β from ATP activated human monocytes [1, 12]: inhibited in a dose dependant manner; proIL-1β release from ATP activated human monocytes [1, 12]: no proIL-1β is released |
